The values that follow come from the SangsterLogP compilation.

SMILES strings stand for the structures.

Turning to `O=C(O)CCc1ccc2c(c1O)C(=O)c1c(O)cccc1C2`, the lipophilicity (logP) is 3.78.

`O=C(O)CCCCCc1ccc2c(c1O)C(=O)c1c(O)cccc1C2` had a logP of 4.6.

For `COC(=O)Cc1ccc2c(c1O)C(=O)c1c(O)cccc1C2`, the log partition coefficient (logP) was 3.93.

In the case of `O=C1c2c(O)cccc2Cc2ccc(C(Cc3ccccc3)C(=O)O)c(O)c21` (stereo not drawn), the lipophilicity (logP) was determined as 4.11. This logP and that of the compound before are within 0.2 log units of each other.

The compound `COC(=O)C(CCc1ccccc1)c1ccc2c(c1O)C(=O)c1c(O)cccc1C2` (stereo not drawn) returned a log partition coefficient (logP) of 5.17.

For `COC(=O)C(C)C(C)c1ccc2c(c1O)C(=O)c1c(O)cccc1C2` (stereo not drawn), the log partition coefficient (logP) turned out to be 4.77.

Compound `COC(=O)C(C)c1ccc2c(c1O)C(=O)c1c(O)cccc1C2` (stereo not drawn) had a logP of 4.16.

With `CC(C(=O)O)c1ccc2c(c1O)C(=O)c1c(O)cccc1C2` (stereo not drawn), the log partition coefficient (logP) turned out to be 3.4.

`COC(=O)CCCCc1ccc2c(c1O)C(=O)c1c(O)cccc1C2` yielded a lipophilicity (logP) of 4.97.

As to `O=C(O)CCCc1ccc2c(c1O)C(=O)c1c(O)cccc1C2`, the lipophilicity (logP) amounted to 3.91.

The compound `O=C(O)CCCCc1ccc2c(c1O)C(=O)c1c(O)cccc1C2` displayed a lipophilicity (logP) of 4.22.

Consider `COC(=O)c1ccc(C(=O)c2ccc3c(c2O)C(=O)c2c(O)cccc2C3)cc1`, for which the log partition coefficient (logP) is 5.22.

Regarding `COC(=O)CCc1ccc2c(c1O)C(=O)c1c(O)cccc1C2`, the logP stood at 4.55.

As for `COC(=O)C(Cc1ccccc1)c1ccc2c(c1O)C(=O)c1c(O)cccc1C2` (stereo not drawn), the logP was 4.86.

In turn, `CC(C(=O)O)C(C)c1ccc2c(c1O)C(=O)c1c(O)cccc1C2` (stereo not drawn) gave a log partition coefficient (logP) of 3.9.

`COC(=O)CCCCCc1ccc2c(c1O)C(=O)c1c(O)cccc1C2`: the logP is 5.34.

Consider `COC(=O)CCCc1ccc2c(c1O)C(=O)c1c(O)cccc1C2`, for which the log partition coefficient (logP) stood at 4.63.

The compound `O=C1c2c(O)cccc2Cc2ccc(C(CCc3ccccc3)C(=O)O)c(O)c21` (stereo not drawn) had a logP of 4.33.
